{"source": "patent US6670339B1", "about": "“Use of sulfated oligosaccharides in lowering blood triglyceride levels” (The Australian National University, priority 1997, dated 2003)", "key": {"[1]": {"target": "T1, bovine milk lipoprotein lipase (Bos taurus, UniProt P11151)", "T1 construct": "purified from bovine milk as previously described; from tissue; host or cells: bovine milk", "T1 sequence (P11151 29-478)": "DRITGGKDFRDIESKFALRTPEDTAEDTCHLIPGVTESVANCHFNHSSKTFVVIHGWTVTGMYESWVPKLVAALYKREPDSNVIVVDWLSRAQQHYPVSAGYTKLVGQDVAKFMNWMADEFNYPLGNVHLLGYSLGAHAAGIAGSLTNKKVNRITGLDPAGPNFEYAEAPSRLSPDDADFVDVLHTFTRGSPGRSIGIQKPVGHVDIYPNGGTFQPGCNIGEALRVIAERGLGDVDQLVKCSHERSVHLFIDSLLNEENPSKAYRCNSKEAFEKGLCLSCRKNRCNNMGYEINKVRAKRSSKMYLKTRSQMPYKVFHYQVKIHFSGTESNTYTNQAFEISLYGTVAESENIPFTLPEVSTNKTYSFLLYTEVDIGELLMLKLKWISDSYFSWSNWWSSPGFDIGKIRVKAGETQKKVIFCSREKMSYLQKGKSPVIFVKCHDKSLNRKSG", "experiment": "Inhibition of binding of biotinylated heparin/heparan sulfate to immobilised lipoprotein lipase", "description": "As a more rapid and direct means of measuring the ability of different sulfated oligosaccharides to release lipoprotein lipase from the endothelium, an in vitro assay for this effect was developed. The assay involved immobilising lipoprotein lipase (10 μg/ml in PBS, 15 hr, 4° C.), purified from bovine milk as previously described^12, in 96 well plastic microplates (50 μl/well). Non-specific binding sites were then blocked by the addition of 200 μl/well of PBS containing 1% (w/v) bovine serum albumin (BSA) for 2 hr at 4° C. Following three washes with 200 μl/well of PBS/0.05% Tween 20 (PBST), 50 μl/well of either biotinylated bovine lung heparin or biotinylated porcine mucosal heparan sulfate (Sigma), used at either 1 or 10 μg/ml, was added and incubated for 2 hr at 4° C. Following three washes with PBST, 50 μl/well of europeum-streptavidin (1 ng/ml in PBS/1% BSA) was added for 1 hr at 4° C., the plate again washed three times with PBST, enhancement solution (50 μl/well) added and bound europeum measured by time resolved fluorescence detection using a Delfia Research Fluorometer (Wallac, Turku, Finland). Inhibition assays measured the ability of different sulfated oligosacchandes to inhibit the binding of biotinylated heparan/heparin sulfate to the immobilised lipoprotein lipase enzyme."}, "[2]": {"test_system": "serum triglyceride levels", "experiment": "Serum triglyceride levels in mice 2 hours after a single s.c. dose (dose response)", "format": "in vivo, CBA/h female mice", "details": "single s.c. doses of 10 mg/kg and above (10, 20, 50, 100 mg/kg), 2 hours after injection", "description": "FIG. 2. Effect of different single doses of sulfated mannopentaose phosphate (PI-88) (10-100 mg/kg) on serum triglyceride levels 2 hours following s.c. injection. Data presented as group means±SEM (n=4).\nThus, 20 CBA/h female mice 8-10 weeks old were weighed and placed into five groups, containing four mice each based on weight. The control group was injected with sterile normal saline solution 100 μl s.c. The respective treatment groups were injected with sulfated mannopentaose phosphate at doses of 10, 20, 50 or 100 mg/kg s.c. in a volume of 100 μl of sterile normal saline solution. Two hours following injection, mice were anaesthetised and blood was collected via cardiac puncture and allowed to clot and serum triglyceride levels were measured using a commercially available kit (Sigma, Triglyceride—GPO-Trinder)."}, "[3]": {"test_system": "blood triglyceride levels", "experiment": "Blood triglyceride levels in mice after alternate daily s.c. injection", "format": "in vivo, CBA/h female mice", "details": "50 mg/kg s.c. on alternate days, 4 injections, 24 hours after last injection; control 1.11±0.1", "description": "Thus, 10 CBA/h female mice 8-10 weeks old were weighed and divided into two groups of 5 mice each based on weight. Mice in the control group were injected with sterile normal saline solution 100 μl s.c. on alternate days for a total of 4 injections. Mice in the treatment group were injected with the sulfated mannopentaose phosphate at a dose of 50 mg/kg s.c. on alternate days for a total of 4 injections. Twenty-four hours following the last injection, blood (50 μl) was collected from the tail veins of each animal and assayed for triglyceride levels (Sigma, Triglyceride—GPO-Trinder). Blood triglyceride levels in the control group averaged 1.11±0.1 mM and blood triglyceride levels in the treatment group averaged 0.64±0.04 mM."}}, "data": [{"substance": "sulfated mannopentaose phosphate [PI-88 (15 SO4/molecule)]", "values": [{"measurement": "IC50, inhibition of binding of Biotinylated Heparin (1 μg/ml) to lipoprotein lipase", "setting": "[1]; biotinylated bovine lung heparin 1 μg/ml", "result": 1, "unit": "µg/mL"}, {"measurement": "IC50, inhibition of binding of Biotinylated Heparin (10 μg/ml) to lipoprotein lipase", "setting": "[1]; biotinylated bovine lung heparin 10 μg/ml", "result": 3, "unit": "µg/mL"}, {"measurement": "IC50, inhibition of binding of Biotinylated Heparan Sulfate (10 μg/ml) to lipoprotein lipase", "setting": "[1]; biotinylated porcine mucosal heparan sulfate 10 μg/ml", "result": 0.1, "unit": "µg/mL"}, {"measurement": "inhibitory activity on lipoprotein lipase binding to heparin/heparan sulfate, in words", "setting": "[1]; summary of Table 1", "result": "potent inhibitors"}, {"measurement": "reduction in blood triglyceride levels, in words", "setting": "[2]", "result": "significant reduction"}, {"measurement": "blood triglyceride levels", "setting": "[3]", "result": "0.64 ± 0.04", "unit": "mM"}]}]}
